Laboratory results: US8822541B2, “Use of targeted nitroxide agents in mitigating or treating radiation injury” (University of Pittsburgh—Of the Commonwealth System of …, priority 2008, dated 2014)
Entries after “also recorded” stand apart in the source; their conditions may differ.

Key:
Ercc1−/Δ mice = assay: Signs of aging in progeroid Ercc1−/Δ mice; assay type: in vivo, mouse; conditions: 2 mg/kg ip three times per week
Protocol: To assess the effectiveness of XJB-5-131 in inhibiting degeneration and/or signs of aging, the compound was administered, over an 18-21 week period, progeroid
Ercc1^−/Δ mice, at a dose of 2 mg/kg in sunflower oil carrier (to promote solubility) administered intraperitoneally three times per week (FIG. 32). Sunflower seed oil was administered to twin Ercc1^−/Δ mice according to the same schedule as a control. The treated and control mice were monitored twice a week for weight and symptom/sign development.
FIG. 33 presents a summary table showing the results of the treatment with XJB-5-131 (“XJB” in this Figure), relative to control (sunflower seed oil) after treatment from 5 wks of life until death. The numbers indicate the average age at onset of each age-related symptom for mice treated with XJB-5-131 or vehicle only (oil) (n=5 mice per group). […] Of note, all of the signs of neurodegeneration, including dystonia, trembling, ataxia, wasting and urinary incontinence were delayed in the treated animals, providing strong evidence that XJB-5-131 protects neurons against degenerative changes caused by oxidative stress.
To assess the ability of XJB-5-131 to inhibit deterioration of intervertebral discs (an index of degenerative disease of the vertebra), the level of glycosaminoglycan in the discs in treated and control mice were measured, and the results are shown in FIG. 34. The intervertebral discs of treated mice contained approximately 30 percent more glycosaminoglycan relative to control mice, indicating inhibition of disc degeneration.

[1] = test system: MEF cells from Ercc1−/− mice; assay: Senescence, DNA damage, apoptosis and proliferation in Ercc1−/− MEF cells under oxidative stress; assay type: cell-based, mouse; conditions: for γ-H2AX immunostaining: 1 μM, 48 hours; for γ-H2AX immunostaining / level of p16: 20% oxygen; for level of p16: 1 uM, 48 hrs
Protocol: Graphs showing weight over time of treated, untreated and control animals are shown in FIG. 36A-B. To assess the impact of XJB-5-131 at a cellular level, a number of experiments were carried out using mouse embryonic fibroblasts (“MEF”) cells harvested from Ercc1^−/− mouse embryos.
To test the protective activity of JP4-039, cultures of primary MEFs were prepared from Ercc1^−/− mouse embryos and grown under 20% oxygen (ambient air), which creates oxidative stress in these cells that are hypersensitive to reactive oxygen species. The cells were then either treated with a concentration of 1 uM XJB-5-131, JP4-039, JED-E71-37 or JED-E71-58, or left untreated (media), and then after 48 hrs the level of p16, a marker of irreversible cellular senescence, was measured by immunofluorescence staining.
To evaluate the protective activities of JED-E71-37 and JED-E71-58, primary MEF cells were prepared from Ercc1^−/− mice and grown under conditions of oxidative stress (ambient air, 20% oxygen). The cells were then either untreated or treated with 1 μM JED-E71-37 or JED-E71-58 for a period of 48 hours.
Next, the abilities of these two agents, as well as XJB-5-131 and JP4-039, each at a concentration of 1 μM, were tested for their ability to prevent oxidation-induced DNA double-strand breaks in cell cultures prepared, and oxidatively stressed, as in the preceding paragraph. Treated as well as untreated cells were, after 48 hours of treatment, immunostained for γ-H2AX, a marker of DNA double-strand breaks as well as cellular senescence.

[2] = test system: KM101 human marrow stromal cells; assay: Irradiation survival of KM101 marrow stromal cells; assay type: cell-based; conditions: 10 μM; for n (shoulder): control 1.1
Protocol: KM101 cells were incubated in media alone or in JP4-039 (10 μM) for one hour before irradiation or 24 hours after irradiation. The cells were irradiated to doses ranging from 0 to 6 Gy and plated in 4 well plates. Seven days later the cells were stained with crystal violet and colonies of greater than 50 cells counted. Cells incubated in JP4-039 either before or after irradiation were more radioresistant as shown by an increased shoulder of n=2.3±0.2 or 2.2±0.2, respectively compared to n of 1.1±0.1 for the KM101 cells (p=0.0309 or 0.0386, respectively).

[3] = test system: MEF cells from Ercc1−/− mouse embryos; assay: Toxicity of JP4-039 in Ercc1−/− MEF cultures; assay type: cell-based; conditions: up to 10 μM
Protocol: (§1) To assess the therapeutic potential of JP4-039, tests for safety and protective activity were performed. FIGS. 35 and 36 show the results of tests to evaluate whether varying concentrations of JP4-039 produce toxic effects after 48 hours in cultures of MEF cells prepared from Ercc1^−/− or wild-type mouse embryos, respectively.

[4] = test system: mice exposed to total body irradiation; assay: Survival of mice after total body irradiation; assay type: in vivo, mouse
Protocol: Mice received intraperitoneal injection of 10 mg. per kilogram of each of the chemicals indicated in FIG. 5, then 24 hours later received 9.75 Gy total body irradiation according to published methods. Mice were followed for survival according to IACUC regulations. […] (P=0.0008).
Groups of 15 mice received intraperitoneal injection of 10 mg. per kilogram of each indicated GS-nitroxide compound or carrier (Cremphora plus alcohol at 1 to 1 ratio, then diluted 1 to 10 in distilled water). Mice received 10 mg per kilogram intra-peritoneal injection 24 hours prior to total body irradiation. Control mice received radiation alone. […] (P=0.0005)
C57BL/6NHsd female mice were irradiated to 9.5 Gy whole body irradiation. At 10 min, 30 min, 1 hr, 4 hr, or 8 hr after irradiation, the mice were injected intraperitoneally with JP4-039 (10 mg/kg). The mice were followed for the development of the irradiation induced hematopoietic syndrome.
Mice were irradiated to 9.5 Gy and injected IP 10 minutes later with concentration of JP-4-039 ranging from 0.5 mg/kg to 10 mg/kg. The mice were followed for developments of the hematopoietic syndrome. The optimal dose of JP4-039 providing the best irradiation protection is 5 mg/kg.

[5] = test system: 32D cl 3 mouse hematopoietic progenitor cell line; assay: Irradiation survival curves of 32D cl 3 cells with JP4-039 (Example 10); assay type: cell-based; conditions: 10 μM, control 1.29
Protocol: Irradiation survival curves were performed on cells from the 32D cl 3 mouse hematopoietic progenitor cell line, incubated in 10 μM JP4-039 for 1 hour before irradiation, or plated in methycellulose containing 10 μM JP4-030 after irradiation. Cells were irradiated from 0 to 8 Gy, plated in 0.8% methycellulose containing media, and incubated for 7 days at 37° C. Colonies of greater than 50 cells were counted and data analyzed by linear quadratic and single-hit, multi-target models.

[6] = test system: MEF cells from wild-type mouse embryos; assay: Toxicity of JP4-039 in wild-type MEF cultures; assay type: cell-based; conditions: up to 10 μM, 48 hours
Protocol: as §1

CC(C)C[C@@H](/C=C/[C@H](Cc1ccccc1)C(=O)N1CCC[C@H]1C(=O)N[C@H](C(=O)N[C@@H](CCCNC(=O)OCc1ccccc1)C(=O)NC1CC(C)(C)N([O])C(C)(C)C1)C(C)C)NC(=O)OC(C)(C)C [XJB-5-131]
body weight (Ercc1−/Δ mice): did not lose weight; also recorded: does not cause weight loss
glycosaminoglycan in intervertebral discs relative to control mice (Ercc1−/Δ mice): approximately 30 percent more
onset of signs of neurodegeneration (dystonia, trembling, ataxia, wasting, urinary incontinence) (Ercc1−/Δ mice): delayed
overall aging score (Ercc1−/Δ mice): significantly improved
SA-β galactosidase staining ([1]; 500 nM): notably less
amount of apoptosis ([1]; 500 nM): did not reduce the amount of apoptosis
number of γH2AX foci ([1]; 500 nM): reduce the number of γH2AX foci
γ-H2AX immunostaining [1]: less effective
level of p16 [1]: less effective

CC(C)C[C@@H](/C=C/CC(=O)NC1CC(C)(C)N([O])C(C)(C)C1)NC(=O)OC(C)(C)C [JP4-039, TEMPO-4-yl-(S,E)-5-(tert-butoxycarbonylamino)-7-methyloct-3-enamide]
n (shoulder) ([2]; 24 hours after irradiation): 2.2±0.2
Do ([2]; before or after irradiation): no significant change
n (shoulder) ([2]; one hour before irradiation): 2.3±0.2
cellular proliferation relative to untreated control cells ([3]; Ercc1−/− or wild-type MEF): enhanced
toxicity ([3]; 48 hours): no signs of toxicity; also recorded: not toxic
survival of mice ([4]; 9.5 Gy TBI, 10 mg/kg ip 24 hours prior): increases survival
optimal time of delivery for radiation mitigation ([4]; 9.5 Gy, 10 mg/kg ip after irradiation): 1 h
optimal dose providing the best irradiation protection ([4]; 9.5 Gy, IP 10 minutes after irradiation): 5 mg/kg
survival of mice ([4]; 9.75 Gy TBI, 10 mg/kg ip 24 hours before): significant increase in survival
γ-H2AX immunostaining [1]: also effective
level of p16 [1]: much lower
ñ (shoulder on the survival curve) ([5]; drug added after irradiation): 4.55±0.47
ñ (shoulder on the survival curve) ([5]; drug added before irradiation): 5.25±0.84
toxicity [6]: no signs of toxicity; also recorded: not toxic
